Measured values taken from patent US11510908B2, “Protein translation inhibitors and uses thereof” (University of Maryland, Baltimore, priority 2019, dated 2022).

How the values were obtained:
hnRNP A18 [1] = molecular target: T1, hnRNP A18 (Homo sapiens, UniProt Q14011); experiment: RNA band shift (EMSA) with His-hnRNP A18 and biotinylated hnRNP A18 RNA motif 1; format: binding; parameters: recombinant full length His-hnRNP A18 incubated with biotinylated hnRNP A18 RNA motif 1; settings: increasing concentrations of compound
T1 sequence (Q14011 1-172): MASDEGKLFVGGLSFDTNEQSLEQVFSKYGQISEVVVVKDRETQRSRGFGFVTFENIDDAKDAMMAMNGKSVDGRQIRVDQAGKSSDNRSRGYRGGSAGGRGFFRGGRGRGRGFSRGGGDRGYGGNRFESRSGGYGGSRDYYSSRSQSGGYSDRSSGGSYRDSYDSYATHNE
Protocol: RNA band shifts were performed according to the manufacturer recommendations (LightShift Chemiluminescent RNA EMSA kit, Thermo Scientific, Rockford, Ill.). Briefly recombinant His-hnRNP A18 or His-hnRNP A1 (1 μg) were incubated with biotinylated RNA (hnRNP A18 motif 1, IRE 28 or 51 nucleotides) in 20 μl and run on native polyacrylamide gels transfer to nylon probes and hybridize with streptavidin HRP antibody.

[2] = system: melanoma LOX-IM-VI, colon cancer RKO, Glioblastoma D54, pancreatic cancer MiaPaca, MDA-MD-231 cells; experiment: Cell viability of human cancer cells (Apo-Tox-Glo); format: cell-based; settings: 24 hrs, increasing concentration
Protocol: (§1) Cell Viability and Tumor Growth In Vivo
(§2) Cells viability was measured on normal human mammary epithelial cells (HMEC: ATCC, Gaithersburg, Md.) grown as recommended by the manufacturer and human cancer cells including melanoma LOX-IM-VI, colon cancer RKO, Gliobalstoma D54, pancreatic cancer MiaPaca and triple negative breast cancer MDA-MD-231 cells (5) with the Apo-Tox-Glo kit (Promega, Madison, Wis.) as recommended by the manufacturer. The cells were plated (10,000 cells per well) on a 96 well plate and exposed to increasing concentration of chemical probes for 24 hrs and reacted with the viability reagent as recommended. Fluorescence was measured on a plate reader at 400 nm Ex/505 nm Em.

[3] = PAMPA (parallel artificial membrane permeability assay); format: in vitro ADME; settings: measured at pH 5.0 and 6.8, room temperature, ~4 hours, read-out: Effective permeability Pe
Protocol: The PAMPA assay was performed by Pion (Billerica, Mass.) on 81 compounds selected out of the 264 compounds showing at least 80% similarity to Compound 1, logP<5.0, and 4DBA closer to 0 (>−4.9). The compounds were dissolved at 10 mM in Dimethyl sulfoxide (DMSO, spectrophotometric grade) and filtered (0.2 μm pore size, hyrodophylic PVDF). The assays were carried in the PAMPA STIRWELL plates (lot A0440) and measured at pH 5.0 and 6.8 at room temperature for ˜4 hours on a PAMPA EVOLUTION instrument.

hnRNP A18 [4] = molecular target: T1, hnRNP A18; experiment: Cellular Engagement Thermal Shift Assay (CETSA) in LOX-IM-VI cells; format: cell-based; parameters: expressed in transfected cells; host or cells: LOX-IM-VI human melanoma cells stably transfected with hnRNP A18-GFP; settings: 3 hours, heat shock at Tagg(75), read-out: EC50, binding and stabilization of hnRNP A18 in cells
Protocol: Cellular Thermal Shift Assay (CETSA)
Cellular thermal shift assay (CETSA) was performed with LOX-IM-VI hnRNP
A18 cells cultured in RPMI medium supplemented with 10% FBS. For an initial determination of the melting profile of hnRNP A18, cells dispensed into 96-well PCR plate in the above medium (5000 cells/well/50 μl), were subjected to temperature gradient (40-60° C.) for 10 min. Cold non-denaturing lysis buffer (PBS supplemented with 0.1% TritonX-100 and 1× protease inhibitors) was added to wells, and the plate was rocked and incubated for 15 min on ice. Subsequently, centrifugation was performed at 14.000 rpm to sediment the unstable protein content. Supernatant was collected, and SDS-PAGE gel was run, and immuno-detection was performed using poly-clonal anti-hnRNP A18 antibody (Sigma, CIRP). hnRNP A18 band was quantified on LI-COR C-Digit Blot Scanner, and subsequently Tagg(50) and Tagg(75) values were calculated for hnRNP A18.
In a subsequent run, cells were treated at various doses (80, 40, 20, 10, 5, 2.5 and 1.25 μM) of Compound 2 (Chembridge 7646184), Compound 4 (OTAVA 219853) and Compound 5 (VITAS STK508411) together with DMSO control, for 3 hours. Cells were then subjected to heat shock at Tagg(75) for 10 min, and unstable protein was removed by centrifugation step. Following an immuno-blotting step, bands of stable hnRNP A18 protein was quantified, normalized to loading control and plotted using GraphPad Prism software. EC50 values of Compound 2, Compound 4 and Compound 5 compounds were calculated.

[5] = system: normal human mammary epithelial cells (HMEC); experiment: Cell viability of normal human mammary epithelial cells (Apo-Tox-Glo); format: cell-based; settings: 24 hrs; for Effect on normal cells viability: Compounds 2 and 3 at doses as high as 150 μM
Protocol: as §1, §2

hnRNP A18 [6] = molecular target: T1, hnRNP A18; experiment: Fluorescence anisotropy competition binding of hnRNP A18 to fluorescein tagged RNA motif 1; parameters: recombinant full length His-hnRNP A18 incubated with biotinylated hnRNP A18 RNA motif 1; settings: 25° C., 30 min, read-out: IC50, inhibition of hnRNP A18 binding to its cognate RNA
Protocol: Quantitative assessments of hnRNP A18-RNA binding equilibria were performed using fluorescence anisotropy essentially as described (36). Briefly, binding reactions (100 μl) were assembled as described for RNA band shift (EMSAs) but in absence of glycerol and using fluorescein labeled rather than biotin labeled RNA substrates. Reactions were incubated at 25° C. for 30 min; preliminary kinetics runs verified that equilibrium was attained within this period. Subsequently, total reaction anisotropy (At) and fluorescence intensity were measured using a Beacon 2000 Fluorescence Polarization System (Panvera) equipped with a 490-nm excitation filter and a 535-nm emission filter. Drug-dependent changes in At were analyzed by nonlinear regression using the four parameter logistic equation (Eq.1) and PRISM software (GraphPad).
Here, APR represents the intrinsic anisotropy of the protein:RNA complex in the absence of tested compounds, AR is the anisotropy of the RNA ligand in the absence of protein, [drug] is the concentration of each tested compound, and h is the Hill slope.

[7] = system: Iron Responsive Protein (IRP); experiment: RNA band shift (EMSA) with Iron Responsive Protein and Iron Responsive Element (specificity); format: binding; settings: very high concentration, decreased specificity
hnRNP A18 RRM = molecular target: T2, hnRNP A18 RRM (Homo sapiens, UniProt Q14011); experiment: NMR HSQC/TROSY chemical shift perturbation screen; format: binding; settings: 150 μM hnRNP A18, excess compound, 298 K
T2 construct: A18 RNA recognition motif (residues 1-92 of hnRNP A18 wildtype) was expressed and purified; 6x-His (N, cleaved yes); protein G B1 domain (GB1) (N, cleaved yes); made in house; host or cells: E. coli BLD21(DE3) (so in the source)
Protocol: The hnRNP A18 RRM samples used for compound screening via high field NMR spectroscopy using a series of single-quantum coherence (HSQC) experiments contained 0.1 to 0.2 mM ^15N-labeled hnRNP A18 RRM, ultrapure water, 10% D2O, 5% d6-DMSO and up to 5 mM of each of the forty compounds tested, as based on their solubility. All of the HSQC data were collected at 25° C. with a Bruker Avance 800 US2 NMR spectrometer (800.27 MHz, ^1H) equipped with pulsed-field gradients, four frequency channels, an automatic sample changer, and a TXI cryogenic probe. Backbone resonance assignments in the presence of compounds were achieved via compound titrations and monitoring chemical shift changes until solubility limits were reached (<5 mM compound). Data were processed with NMRPipe (35), and proton chemical shifts and their perturbations upon binding the various compounds were reported with respect to the H2O or HDO signal taken as 4.698 ppm relative to external TSP (0.0 ppm).

Aqueous solubility = format: physicochemical
[8] = system: hnRNP A18 targeted 3'UTR (Trx); experiment: CAT-Trx 3'UTR reporter assay (CAT ELISA) in LOX-IM VI cells; format: cell-based, human; settings: increasing amounts of drugs, next day
Protocol: CAT-ELISA was performed as recommended by the manufacturer (Sigma-Aldrich). Briefly, human melanoma LOX-IM VI cells stably transfected with hnRNP A18-GFP (9) were transiently transfected with a CAT reporter vector harboring Trx 3′UTR (16). Twenty-four hours later the cells were distributed in 6 well plates and treated with increasing amounts of drugs. The next day, the cells were washed, and protein extracted. […] Cleavage of the substrate catalyzed by the peroxidase enzyme was measured on a plate reader at 405 nm.
In order to determine whether hnRNP A18 binding to these compounds disrupted its cellular functions, a cell-based assay was developed as a read out for hnRNP A18 RNA binding activity. A reporter vector harboring a hnRNP A18 targeted 3′UTR (Trx; (16)) downstream of a CAT gene was engineered. Binding of hnRNP A18 to the targeted 3′UTR is expected to stabilize the CAT transcript and increase CAT protein production, which is then measured by ELISA.

SMILES	Papp [3] [×10⁻⁶ cm/s]	EC50 (hnRNP A18 [4]) [µM]	IC50 (hnRNP A18 [6]) [µM]	Concentration at which binding disruption of IRP to Iron Responsive Element was observed [7] [mM]	Aqueous solubility (Aqueous solubility)	Disruption of hnRNP A18 RNA binding activity by band shift (hnRNP A18 [1])	Effect on cancer cells viability [2]	Effect on normal cells viability [5]	Chemical shift perturbations of hnRNP A18 RRM residues (hnRNP A18 RRM)	Production of CAT protein [8]	Toxicity to normal cells [5]
CC(=O)Oc1cccc(C(=O)Nc2ccc(C(=O)Nc3nccs3)cc2)c1 [Compound 3]	> 20		13			specifically disrupt hnRNP A18 RNA binding activity	killing all cancer cell lines tested	without affecting the viability of normal human epithelial cells			
CC(=O)Oc1ccccc1C(=O)Nc1ccccc1Sc1ncnc2scc(-c3ccccc3)c12 [Compound 2]	> 20	4.7	15			specifically disrupt hnRNP A18 RNA binding activity	killing all cancer cell lines tested	without affecting the viability of normal human epithelial cells			
COc1cccc(C(=O)Nc2nc(-c3ccc(C)cc3)c(NC(=O)c3ccco3)s2)c1 [Compound 6]					Low aqueous solubility	specifically competed for hnRNP A18 binding activity				could only reduce CAT protein levels at the highest concentration	
Cc1sc(NC(=O)c2ccccc2)nc1OC(=O)c1ccccc1 [Compound 5]	> 20	23.8	2.9			specifically disrupt hnRNP A18 RNA binding activity	least effective				20-40%

Continued, in another order:

Papp [3] [×10⁻⁶ cm/s]	EC50 (hnRNP A18 [4]) [µM]	IC50 (hnRNP A18 [6]) [µM]	Concentration at which binding disruption of IRP to Iron Responsive Element was observed [7] [mM]	Aqueous solubility (Aqueous solubility)	SMILES	Disruption of hnRNP A18 RNA binding activity by band shift (hnRNP A18 [1])	Effect on cancer cells viability [2]	Effect on normal cells viability [5]	Chemical shift perturbations of hnRNP A18 RRM residues (hnRNP A18 RRM)	Production of CAT protein [8]	Toxicity to normal cells [5]
> 20	2.7	39			COc1ccccc1C(=O)Nc1nc(-c2ccc(C)cc2)c(NC(C)=O)s1 [Compound 4]	specifically disrupt hnRNP A18 RNA binding activity	preferentially killing cancer cells although less efficiently than Compounds 2 and 3	no significant effect on normal cells viability			
		6.4	5.5		Cc1nc(NC(=O)c2ccccc2)sc1-c1csc(Nc2ccc(O)c(C(=O)O)c2)n1 [Compound 1]	out-competed hnRNP A18 RNA consensus motif			most significant chemical shift perturbations		
